Laboratory results from US8258134B2, “Pyridazinone glucokinase activators” (Hoffmann-La Roche Inc., priority 2008, dated 2012).

Target: T1, Recombinant human liver GK1 (GST-GK) (Homo sapiens, UniProt P35557)
T1 construct: made in house; host or cells: E. coli
T1 sequence (P35557 1-466 isoform P35557-2): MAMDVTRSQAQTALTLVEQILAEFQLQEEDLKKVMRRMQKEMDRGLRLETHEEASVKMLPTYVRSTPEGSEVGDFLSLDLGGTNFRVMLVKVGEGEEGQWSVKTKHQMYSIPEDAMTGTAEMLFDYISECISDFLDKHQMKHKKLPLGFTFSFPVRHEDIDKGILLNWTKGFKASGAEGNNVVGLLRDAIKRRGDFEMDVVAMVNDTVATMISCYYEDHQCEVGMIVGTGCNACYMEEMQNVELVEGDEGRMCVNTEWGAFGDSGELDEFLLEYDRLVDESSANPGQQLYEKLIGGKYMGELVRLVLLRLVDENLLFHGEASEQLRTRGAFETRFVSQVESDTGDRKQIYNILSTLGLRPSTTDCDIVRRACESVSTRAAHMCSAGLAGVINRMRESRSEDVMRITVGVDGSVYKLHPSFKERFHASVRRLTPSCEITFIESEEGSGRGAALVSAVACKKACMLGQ
Assay: Glucokinase in vitro assay (G6PDH-coupled NADH generation, OD340)
Format: biochemical
Conditions: 5 mM D-glucose, 30° C., pH 7.1, 10% DMSO
Outline: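 GST-tagged recombinant GK1 expressed in E. coli, run at 30° C, pH 7.1 Hepes with 5 mM D-glucose, 1 mM ATP and 1.8 mM NAD, G6PDH-coupled. Compounds were in 10% DMSO final, with a 10 min pre-incubation before enzyme addition. OD340/min rate measured; SC1.5 is the activator concentration giving a 50% increase in activity.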

## O=C(Nc1ccn(C[C@@H](O)CO)n1)C(CC1CCCCC1)n1ncc(Oc2c(F)cccc2F)cc1=O (stereo partly drawn) [Example 63, 3-Cyclohexyl-2-[4-(2,6-difluoro-phenoxy)-6-oxo-6H-pyridazin-1-yl]-N-[1-((R)-2,3-dihydroxy-propyl)-1H-pyrazol-3-yl]-propionamide]
  SC1.5 average (concentration of activator that produced a 50% increase in the activity of GK): 0.117 µM

## CCC(CC)CC(C(=O)Nc1ccn(C[C@@H](O)CO)n1)n1ncc(Oc2c(F)cccc2F)cc1=O (stereo partly drawn) [Example 64, 2-[4-(2,6-Difluoro-phenoxy)-6-oxo-6H-pyridazin-1-yl]-4-ethyl-hexanoic acid [1-((R)-2,3-dihydroxy-propyl)-1H-pyrazol-3-yl]-amide]
  SC1.5 average (concentration of activator that produced a 50% increase in the activity of GK): 0.551 µM

## O=C(Nc1ccn(C[C@H](O)CO)n1)C(CC1CCCC1)n1ncc(Oc2c(F)cccc2F)cc1=O (stereo partly drawn) [Example 65, 3-Cyclopentyl-2-[4-(2,6-difluoro-phenoxy)-6-oxo-6H-pyridazin-1-yl]-N-[1-((S)-2,3-dihydroxy-propyl)-1H-pyrazol-3-yl]-propionamide]
  SC1.5 average (concentration of activator that produced a 50% increase in the activity of GK): 0.102 µM

## O=C(Nc1ccn(C[C@H](O)CO)n1)[C@H](CC1CCCC1)n1ncc(Oc2c(F)cccc2F)cc1=O [Example 65A, (S)-3-Cyclopentyl-2-[4-(2,6-difluoro-phenoxy)-6-oxo-6H-pyridazin-1-yl]-N-[1-((S)-2,3-dihydroxy-propyl)-1H-pyrazol-3-yl]-propionamide]
  SC1.5 average (concentration of activator that produced a 50% increase in the activity of GK): 0.049 µM

## O=C(Nc1ccn(C[C@H](O)CO)n1)[C@@H](CC1CCCC1)n1ncc(Oc2c(F)cccc2F)cc1=O [Example 65B, (R)-3-Cyclopentyl-2-[4-(2,6-difluoro-phenoxy)-6-oxo-6H-pyridazin-1-yl]-N-[1-((S)-2,3-dihydroxy-propyl)-1H-pyrazol-3-yl]-propionamide]
  SC1.5 average (concentration of activator that produced a 50% increase in the activity of GK): 3.148 µM

## COC(=O)c1ccc(NC(=O)C(CC2CCCC2)n2ncc(Oc3ccccc3C3CCCC3)cc2=O)nc1 (centres unmarked) [Example 66, 6-{3-Cyclopentyl-2-[4-(2-cyclopentyl-phenoxy)-6-oxo-6H-pyridazin-1-yl]-propionylamino}-nicotinic acid methyl ester]
  SC1.5 average (concentration of activator that produced a 50% increase in the activity of GK): 1.74 µM

## COC(=O)c1ccc(NC(=O)C(CC2CCCC2)n2ncc(Oc3cccc4c3CCCC4)cc2=O)nc1 (centres unmarked) [Example 67, 6-{3-Cyclopentyl-2-[6-oxo-4-(5,6,7,8-tetrahydro-naphthalen-1-yloxy)-6H-pyridazin-1-yl]-propionylamino}-nicotinic acid methyl ester]
  SC1.5 average (concentration of activator that produced a 50% increase in the activity of GK): 0.132 µM

## COC(=O)c1ccc(NC(=O)C(CC2CCCC2)n2ncc(Oc3c(F)cccc3F)cc2=O)nc1 (centres unmarked) [Example 68, 6-{3-Cyclopentyl-2-[4-(2,6-difluoro-phenoxy)-6-oxo-6H-pyridazin-1-yl]-propionylamino}-nicotinic acid methyl ester]
  SC1.5 average (concentration of activator that produced a 50% increase in the activity of GK): 0.013 µM

## COC(=O)c1ccc(NC(=O)[C@H](CC2CCCC2)n2ncc(Oc3c(F)cccc3F)cc2=O)nc1 [Example 68A, 6-{(S)-3-Cyclopentyl-2-[4-(2,6-difluoro-phenoxy)-6-oxo-6H-pyridazin-1-yl]-propionylamino}-nicotinic acid methyl ester]
  SC1.5 average (concentration of activator that produced a 50% increase in the activity of GK): 0.008 µM

## COC(=O)c1ccc(NC(=O)[C@@H](CC2CCCC2)n2ncc(Oc3c(F)cccc3F)cc2=O)nc1 [Example 68B, 6-{(R)-3-Cyclopentyl-2-[4-(2,6-difluoro-phenoxy)-6-oxo-6H-pyridazin-1-yl]-propionylamino}-nicotinic acid methyl ester]
  SC1.5 average (concentration of activator that produced a 50% increase in the activity of GK): 0.597 µM

## COC(=O)c1ccc(NC(=O)C(CC2CCCC2)n2ncc(Oc3ccccc3C)cc2=O)nc1 (centres unmarked) [Example 69, 6-[3-Cyclopentyl-2-(6-oxo-4-o-tolyloxy-6H-pyridazin-1-yl)-propionylamino]-nicotinic acid methyl ester]
  SC1.5 average (concentration of activator that produced a 50% increase in the activity of GK): 0.033 µM

## COC(=O)c1ccc(NC(=O)C(CC2CCCC2)n2ncc(Oc3ccccc3F)cc2=O)nc1 (centres unmarked) [Example 70, 6-{3-Cyclopentyl-2-[4-(2-fluoro-phenoxy)-6-oxo-6H-pyridazin-1-yl]-propionylamino}-nicotinic acid methyl ester]
  SC1.5 average (concentration of activator that produced a 50% increase in the activity of GK): 0.036 µM

## O=C(O)c1ccc(NC(=O)C(CC2CCCC2)n2ncc(Oc3cccc4c3CCCC4)cc2=O)nc1 (centres unmarked) [Example 72, 6-{3-Cyclopentyl-2-[6-oxo-4-(5,6,7,8-tetrahydro-naphthalen-1-yloxy)-6H-pyridazin-1-yl]-propionylamino}-nicotinic acid]
  SC1.5 average (concentration of activator that produced a 50% increase in the activity of GK): 0.098 µM

## O=C(O)c1ccc(NC(=O)[C@H](CC2CCCC2)n2ncc(Oc3cccc4c3CCCC4)cc2=O)nc1 [Example 72A, 6-{(S)-3-Cyclopentyl-2-[6-oxo-4-(5,6,7,8-tetrahydro-naphthalen-1-yloxy)-6H-pyridazin-1-yl]-propionylamino}-nicotinic acid]
  SC1.5 average (concentration of activator that produced a 50% increase in the activity of GK): 0.044 µM

## O=C(O)c1ccc(NC(=O)[C@@H](CC2CCCC2)n2ncc(Oc3cccc4c3CCCC4)cc2=O)nc1 [Example 72B, 6-{(R)-3-Cyclopentyl-2-[6-oxo-4-(5,6,7,8-tetrahydro-naphthalen-1-yloxy)-6H-pyridazin-1-yl]-propionylamino}-nicotinic acid]
  SC1.5 average (concentration of activator that produced a 50% increase in the activity of GK): 0.226 µM

## O=C(O)c1ccc(NC(=O)C(CC2CCCC2)n2ncc(Oc3c(F)cccc3F)cc2=O)nc1 (centres unmarked) [Example 73, 6-{3-Cyclopentyl-2-[4-(2,6-difluoro-phenoxy)-6-oxo-6H-pyridazin-1-yl]-propionylamino}-nicotinic acid]
  SC1.5 average (concentration of activator that produced a 50% increase in the activity of GK): 0.026 µM

## O=C(O)c1ccc(NC(=O)[C@H](CC2CCCC2)n2ncc(Oc3c(F)cccc3F)cc2=O)nc1 [Example 73A, 6-{(S)-3-Cyclopentyl-2-[4-(2,6-difluoro-phenoxy)-6-oxo-6H-pyridazin-1-yl]-propionylamino}-nicotinic acid]
  SC1.5 average (concentration of activator that produced a 50% increase in the activity of GK): 0.012 µM

## O=C(O)c1ccc(NC(=O)[C@@H](CC2CCCC2)n2ncc(Oc3c(F)cccc3F)cc2=O)nc1 [Example 73B, 6-{(R)-3-Cyclopentyl-2-[4-(2,6-difluoro-phenoxy)-6-oxo-6H-pyridazin-1-yl]-propionylamino}-nicotinic acid]
  SC1.5 average (concentration of activator that produced a 50% increase in the activity of GK): 0.507 µM

## Cc1ccccc1Oc1cnn(C(CC2CCCC2)C(=O)Nc2ccc(C(=O)O)cn2)c(=O)c1 (centres unmarked) [Example 74, 6-[3-Cyclopentyl-2-(6-oxo-4-o-tolyloxy-6H-pyridazin-1-yl)-propionylamino]-nicotinic acid]
  SC1.5 average (concentration of activator that produced a 50% increase in the activity of GK): 0.067 µM

## Cc1ccccc1Oc1cnn([C@@H](CC2CCCC2)C(=O)Nc2ccc(C(=O)O)cn2)c(=O)c1 [Example 74A, 6-[(S)-3-Cyclopentyl-2-(6-oxo-4-o-tolyloxy-6H-pyridazin-1-yl)-propionylamino]-nicotinic acid]
  SC1.5 average (concentration of activator that produced a 50% increase in the activity of GK): 0.043 µM

## Cc1ccccc1Oc1cnn([C@H](CC2CCCC2)C(=O)Nc2ccc(C(=O)O)cn2)c(=O)c1 [Example 74B, 6-[(R)-3-Cyclopentyl-2-(6-oxo-4-o-tolyloxy-6H-pyridazin-1-yl)-propionylamino]-nicotinic acid]
  SC1.5 average (concentration of activator that produced a 50% increase in the activity of GK): 0.245 µM

## O=C(O)c1ccc(NC(=O)C(CC2CCCC2)n2ncc(Oc3ccccc3F)cc2=O)nc1 (centres unmarked) [Example 75, 6-{3-Cyclopentyl-2-[4-(2-fluoro-phenoxy)-6-oxo-6H-pyridazin-1-yl]-propionylamino}-nicotinic acid]
  SC1.5 average (concentration of activator that produced a 50% increase in the activity of GK): 0.058 µM

## O=C(O)c1ccc(NC(=O)[C@H](CC2CCCC2)n2ncc(Oc3ccccc3F)cc2=O)nc1 [Example 75A, 6-{(S)-3-Cyclopentyl-2-[4-(2-fluoro-phenoxy)-6-oxo-6H-pyridazin-1-yl]-propionylamino}-nicotinic acid]
  SC1.5 average (concentration of activator that produced a 50% increase in the activity of GK): 0.033 µM

## O=C(O)c1ccc(NC(=O)[C@@H](CC2CCCC2)n2ncc(Oc3ccccc3F)cc2=O)nc1 [Example 75B, 6-{(R)-3-Cyclopentyl-2-[4-(2-fluoro-phenoxy)-6-oxo-6H-pyridazin-1-yl]-propionylamino}-nicotinic acid]
  SC1.5 average (concentration of activator that produced a 50% increase in the activity of GK): 0.796 µM

## O=C(Nc1cnccn1)C(CC1CCCC1)n1ncc(Oc2ccccc2C(F)(F)F)cc1=O (centres unmarked) [Example 76, 3-Cyclopentyl-2-[6-oxo-4-(2-trifluoromethyl-phenoxy)-6H-pyridazin-1-yl]-N-pyrazin-2-yl-propionamide]
  SC1.5 average (concentration of activator that produced a 50% increase in the activity of GK): 0.376 µM

## CN(c1ccccc1)c1cnn(C(CC2CCCC2)C(=O)Nc2ccn(CC(C)(C)O)n2)c(=O)c1 (centres unmarked) [Example 77, 3-Cyclopentyl-N-[1-(2-hydroxy-2-methyl-propyl)-1H-pyrazol-3-yl]-2-[4-(methyl-phenyl-amino)-6-oxo-6H-pyridazin-1-yl]-propionamide]
  SC1.5 average (concentration of activator that produced a 50% increase in the activity of GK): 21.07 µM
